The supplement of paper PMC10307832

Legend:
[1] = compound: COc1cc2nc(N3CCCN(C)CC3)nc(NC3CCN(Cc4ccccc4)CC3)c2cc1OC + CC(=O)Nc1cccc(-n2c(=O)n(C3CC3)c(=O)c3c(Nc4ccc(I)cc4F)n(C)c(=O)c(C)c32)c1 [Trametinib] (partner 0.02 µM); assay: relative viability (nuclei count vs DMSO), 5 days (fraction); higher = more cells survive
Method in brief: (§1)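 Values are medians from duplicate plates. Each reflects relative viability, defined as the nuclei count of treated wells over that of vehicle wells. Lung cancer cell lines in 1536-well plates were pin-tool dosed one day after seeding with one drug alone or with a fixed anchor-drug dose plus five library-drug doses (not always all listed) in √10 steps, then fixed, stained and imaged at 4× after 5 days.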

AZD6482 + Dasatinib = compound: Cc1cc([C@@H](C)Nc2ccccc2C(=O)O)c2nc(N3CCOCC3)cc(=O)n2c1 [AZD6482] + Cc1nc(Nc2ncc(C(=O)Nc3c(C)cccc3Cl)s2)cc(N2CCN(CCO)CC2)n1 [Dasatinib] (partner 0.075 µM); assay: as above
Method in brief: as §1

Cell Line	relative viability ([1]; first compound 0.2 µM)	relative viability ([1]; first compound 0.6325 µM)	relative viability ([1]; first compound 2 µM)	relative viability ([1]; first compound 6.325 µM)	relative viability (AZD6482 + Dasatinib; first compound 0.08 µM)	relative viability (AZD6482 + Dasatinib; first compound 0.253 µM)	relative viability (AZD6482 + Dasatinib; first compound 0.8 µM)	relative viability (AZD6482 + Dasatinib; first compound 2.53 µM)	relative viability (AZD6482 + Dasatinib; first compound 8 µM)
HCC-44	1.04	1.13	1.1	1.08	–	–	–	–	–
HCC-827	0.533	0.558	0.518	0.542	0.255	0.2	0.197	0.161	0.214
NCI-H1623	–	–	–	–	0.521	0.524	0.457	0.426	0.395
NCI-H2347	0.275	0.299	0.271	0.377	0.271	0.244	0.262	0.298	0.281
PC-14	0.707	0.648	0.806	0.0693	0.245	0.281	0.239	0.197	0.16
NCI-H1651	0.828	0.815	0.888	0.848	0.335	0.435	0.401	0.337	0.307
HARA	0.686	0.916	0.522	0.746	0.268	0.302	0.232	0.188	0.157
NCI-H1650	0.576	0.601	0.499	0.511	0.224	0.278	0.316	0.234	0.318
NCI-H1395	1.01	1.03	1.13	0.806	0.348	0.346	0.357	0.29	0.369
LU99A	0.531	0.47	0.541	0.526	0.562	0.522	0.397	0.389	0.407
NCI-H1355	0.419	0.458	0.433	0.385	0.479	0.496	0.766	0.492	0.456
HCC-78	0.734	0.695	0.723	0.685	0.298	0.207	0.254	0.192	0.199
NCI-H1563	–	–	–	–	0.487	0.479	0.442	0.449	0.465
HCC-15	0.44	0.386	0.373	0.379	0.566	0.545	0.594	0.385	0.598
EKVX	0.316	0.393	0.319	0.278	0.465	0.507	0.504	0.304	0.3
NCI-H2087	0.244	0.215	0.144	0.206	0.722	0.822	0.951	–	0.74
LK-2	0.813	0.928	0.633	0.881	0.349	0.286	0.327	0.26	0.221
NCI-H1437	0.492	0.515	0.527	0.325	0.599	0.316	0.44	0.282	0.244
COR-L23	0.635	0.466	0.748	0.638	0.338	0.374	0.47	0.292	0.326

Cell Line	relative viability ([1]; first compound 0.2 µM)	relative viability ([1]; first compound 0.6325 µM)	relative viability ([1]; first compound 2 µM)	relative viability ([1]; first compound 6.325 µM)	relative viability (AZD6482 + Dasatinib; first compound 0.08 µM)	relative viability (AZD6482 + Dasatinib; first compound 0.253 µM)	relative viability (AZD6482 + Dasatinib; first compound 0.8 µM)	relative viability (AZD6482 + Dasatinib; first compound 2.53 µM)	relative viability (AZD6482 + Dasatinib; first compound 8 µM)
ABC-1	–	–	–	–	0.5	0.591	0.699	0.496	0.53
NCI-H522	0.754	0.728	0.749	0.817	0.832	0.783	0.879	0.974	0.747
NCI-H838	0.536	0.556	0.532	0.391	0.24	0.248	0.257	0.218	0.28
SW 900	0.661	0.753	0.584	0.688	0.446	0.419	0.462	–	0.252
A-427	0.756	0.677	0.739	0.674	0.717	0.615	0.715	–	0.754
NCI-H1792	0.435	0.47	0.466	0.399	0.769	0.703	0.862	0.569	0.515
LCLC-97TM1	0.181	0.166	0.225	0.195	0.87	0.711	0.869	0.611	0.486
LCLC-103H	0.682	0.745	0.743	0.671	0.361	0.359	0.224	0.251	0.225
PC-3 [JPC-3]	0.641	0.761	0.745	0.507	0.887	0.959	0.898	0.769	0.791
BEN	1.06	1.04	1.02	1.1	0.358	0.269	0.39	0.216	0.339
NCI-H1666	0.821	0.781	0.774	0.799	0.801	0.845	0.906	0.737	0.946
LC-2-ad	0.934	0.871	0.942	0.941	0.431	0.357	0.537	0.306	0.282
SK-LU-1	0.554	0.541	0.516	0.459	–	0.165	0.18	0.152	0.165
ChaGo-K-1	0.919	0.882	0.932	0.887	0.647	0.501	0.79	0.589	0.532
COR-L 105	0.429	0.515	0.403	0.439	0.287	0.318	0.325	0.262	0.273
NCI-H1975	0.369	0.41	0.346	0.322	0.312	0.327	0.389	0.289	0.235
NCI-H1993	0.497	0.485	0.414	0.589	0.514	0.543	0.442	0.348	0.542
RERF-LC-KJ	0.829	0.862	0.928	0.803	0.586	0.77	0.762	0.706	0.682
NCI-H23	0.358	0.362	0.44	0.342	0.746	0.952	0.511	0.572	0.368
